According to patent US7348425B2, “Inhibitors of HCV replication” (Bristol-Myers Squibb Company, priority 2004, dated 2008):

Assays:
HCV replicon [1] = assay: HCV replicon luciferase assay; type: cell-based, Hepatitis C virus; settings: Hepatitis C virus, read-out: EC50
Procedure: To prepare plates, HCV replicon cells, with or without a Renilla luciferase reporter gene, were trypsinized and placed into each well of a 96-well plate with titrated test compounds added in columns 3 through 12; columns 1 and 2 contained a control compound (HCV protease inhibitor), and the bottom row contained cells without compound. The plates were then placed in a CO2 incubator at 37 degrees C.
Assays. Subsequent to addition of the test compounds described above (FRET Assay Preparation), at various times the plate was removed and Alamar blue solution (Trek Diagnostics, #00-100) was added per well as a measure of cellular toxicity. After reading in a Cytoflour 4000 instrument (PE Biosystems), plates were rinsed with PBS and then used for FRET assay by the addition of 30 ul of the FRET peptide assay reagent described above (FRET Assay Preparation) per well. The plate was then placed into the Cytoflour 4000 instrument which had been set to 340 excite/490 emission, automatic mode for 20 cycles and the plate read in a kinetic mode. Typically, the signal to noise using an endpoint analysis after the reads was at least three-fold. Alternatively, after Alamar blue reading, plates were rinsed with PBS, 50 ul of DMEM (high glucose) without phenol red was added and plates were then used for luciferase assay using the Promega Dual-Glo Luciferase Assay System.
Compound analysis was determined by quantification of the relative HCV replicon inhibition and the relative cytotoxicity values. To calculate cytoxicity values, the average Alamar Blue fluorescence signals from the control wells were set as 100% non-toxic. The individual signals in each of the compound test wells were then divided by the average control signal and multiplied by 100% to determine […]. To calculate the HCV replicon inhibition values, an average background value was obtained from the two wells containing the highest amount of HCV protease inhibitor at the end of the assay period. These numbers were similar to those obtained from naïve Huh-7 cells.
The background numbers were then subtracted from the average signal obtained from the control wells and this number was used as 100% activity. The individual signals in each of the compound test wells were then divided by the averaged control values after background subtraction and multiplied by 100% to determine percent activity. EC50 values for a protease inhibitor titration were calculated as the concentration which caused a 50% reduction in FRET or luciferase activity. The two numbers generated for the compound plate, percent cytoxicity and percent activity were used to determine compounds of interest for further analysis.

[2] = target: T1, HCV NS5B RdRp genotype 1b (Hepatitis C virus genotype 1b, UniProt Q9WMX2); assay: Modified HCV NS5B RdRp enzyme assay (with preincubation); type: biochemical
T1 construct: The protein was expressed with an 18 amino acid C-terminal truncation to enhance the solubility; made in house; host or cells: E. coli BL21 (DE3), pET21a
How it was run: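 Seven-point IC50s were derived from SPA-based ³H-UTP incorporation after 4 h at 30 °C (Hepes pH 7.5, 2% DMSO). Compound was first mixed with 14 nM Δ18 NS5B genotype 1b enzyme. Then 0.2 nM polyA, 0.29 μM UTP and bead-bound oligo-dT12 (20 nM) were added.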

HCV replicon [3] = assay: HCV replicon FRET assay; type: cell-based; settings: Hepatitis C virus; FRET assay; read-out: EC50
How it was run: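 Replicon cells (± Renilla luciferase reporter) incubated with titrated compound at 37 °C; NS3 protease activity read by FRET peptide cleavage (20 uM EDANS/DABCYL substrate, 340/490 nm kinetic) or luciferase.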

[4] = cells marked **: Luciferase assay
[5] = modified method (with preincubation)

T1 sequence (Q9WMX2 2420-2992): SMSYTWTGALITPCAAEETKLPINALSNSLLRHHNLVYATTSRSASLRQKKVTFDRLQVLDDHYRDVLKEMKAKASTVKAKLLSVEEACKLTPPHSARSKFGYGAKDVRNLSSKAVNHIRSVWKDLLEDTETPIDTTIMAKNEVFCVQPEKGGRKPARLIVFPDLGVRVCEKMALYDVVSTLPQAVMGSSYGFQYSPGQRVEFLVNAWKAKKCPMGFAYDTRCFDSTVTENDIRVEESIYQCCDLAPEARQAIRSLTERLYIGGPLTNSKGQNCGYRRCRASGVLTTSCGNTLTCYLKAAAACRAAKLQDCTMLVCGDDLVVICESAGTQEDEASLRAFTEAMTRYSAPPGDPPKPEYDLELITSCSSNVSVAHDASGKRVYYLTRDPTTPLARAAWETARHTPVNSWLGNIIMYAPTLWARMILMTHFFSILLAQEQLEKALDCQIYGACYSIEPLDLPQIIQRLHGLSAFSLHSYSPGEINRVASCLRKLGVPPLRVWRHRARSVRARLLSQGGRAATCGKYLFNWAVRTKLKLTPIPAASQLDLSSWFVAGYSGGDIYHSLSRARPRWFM

Row | SMILES | EC50 (HCV replicon [1]; [4]) [nM] | EC50 (HCV replicon [3]) [nM] | other results
1 | COC(=O)/C=C/c1ccc(NC(=O)C2(NC(=O)c3ccc4c(C5CCCCC5)c5n(c4c3)CCCc3occc3-5)CCCC2)cc1 |  |  | EC50 (HCV replicon [1]; luciferase method): 100 to 1000 nM
2 | O=C(O)/C=C/c1ccc(NC(=O)C2(NC(=O)c3ccc4c(C5CCCCC5)c5n(c4c3)CCCc3occc3-5)CCCC2)cc1 |  |  | EC50 (HCV replicon [1]; luciferase method): < 100 nM
3 | O=C(O)/C=C/c1ccc(NC(=O)C2(NC(=O)c3ccc4c(C5CCCCC5)c5n(c4c3)CCCc3ccccc3-5)CCCC2)cc1 | 10 to 1000 |  | IC50 [2, 5]: 20 to 1000 nM
4 | CCNC(=O)N(CCCN(C)C)C(=O)c1ccc2c(C3CCCCC3)c3n(c2c1)CCCc1ccccc1-3 | 1000 to 10000 |  | 
5 | CCOC(=O)/C=C/c1ccc(NC(=O)C2(NC(=O)c3ccc4c(C5CCCCC5)c5n(c4c3)C(OC)c3ccccc3-5)CCCC2)cc1 (centres unmarked) | 1000 to 10000 |  | 
6 | COC1c2ccccc2-c2c(C3CCCCC3)c3ccc(C(=O)NC4(C(=O)Nc5ccc(/C=C/C(=O)O)cc5)CCCC4)cc3n21 (centres unmarked) | 10 to 1000 |  | IC50 [2, 5]: 20 to 1000 nM
7 | COC(=O)c1ccc2c(C3CCCCC3)c3n(c2c1)CC(=O)N3Cc1ccccc1 | 1000 to 10000 |  | 
8 | O=C(O)c1ccc2c(C3CCCCC3)c3n(c2c1)CC(=O)N3Cc1ccccc1 | > 10000 |  | 
9 | COC(=O)c1ccc2c(C3CCCCC3)c3n(c2c1)CC(=O)N3 | 1000 to 10000 |  | 
10 | CC(C)(C)OC(=O)/C=C/c1ccc(NC(=O)C2(NC(=O)c3ccc4c(C5CCCCC5)c5n(c4c3)CC(=O)N5Cc3ccccc3)CCCC2)cc1 | > 10000 |  | 
11 | CCOC(=O)/C=C/c1ccc(NC(=O)C2(NC(=O)c3ccc4c(C5CCCCC5)c5n(c4c3)CC(=O)Nc3ccccc3-5)CCCC2)cc1 | 10 to 1000 |  | 
12 | O=C(O)c1ccc2c(C3CCCCC3)c3n(c2c1)CC/C=C\Nc1ccccc1-3 | 1000 to 10000 |  | 
13 | Cn1c(-c2ccccc2)c(C2CCCCC2)c2ccc(C(=O)NC3(c4nnnn4CC(=O)O)CCCC3)cc21 | > 10000 |  | 
14 | O=C(O)/C=C/c1ccc(NC(=O)C2(NC(=O)c3ccc4c(C5CCCCC5)c5n(c4c3)C/C=C\CNc3ccccc3-5)CCCC2)cc1 | 10 to 1000 |  | IC50 [2, 5]: 20 to 1000 nM
15 | COC(=O)c1ccc2c(C3CCCCC3)c3n(c2c1)CC(=O)N3c1ccccc1 | > 10000 |  | 
16 | O=C(O)c1ccc2c(C3CCCCC3)c3n(c2c1)CC(=O)N3c1ccccc1 | > 10000 |  | 
17 | O=C1Cn2c(c(C3CCCCC3)c3ccc(C(=O)O)cc32)N1 | > 10000 |  | 
18 | O=C(O)c1ccc2c(C3CCCCC3)c3n(c2c1)CCOc1ccccc1-3 | 10 to 1000 |  | 
19 | O=C(O)c1ccc2c(C3CCCCC3)c3n(c2c1)CCCn1ccnc1-3 | > 10000 |  | 
20 | O=C(O)/C=C/c1ccc(NC(=O)C2(NC(=O)c3ccc4c(C5CCCCC5)c5n(c4c3)CCCn3ccnc3-5)CCCC2)cc1 | 1000 to 10000 |  | IC50 [2, 5]: 20 to 1000 nM
21 | CCOC(=O)/C=C/c1ccc(NC(=O)C2(N(C)C(=O)c3ccc4c(C5CCCCC5)c5n(c4c3)CCCc3ccccc3-5)CCCC2)cc1 | 1000 to 10000 |  | IC50 [2, 5]: > 1000 nM
22 | COC(=O)c1ccc2c(C3CCCCC3)c3n(c2c1)CC(NC(=O)N1CCOCC1)Cc1ccccc1-3 (centres unmarked) | 1000 to 10000 |  | 

Row | SMILES | EC50 (HCV replicon [1]; [4]) [nM] | EC50 (HCV replicon [3]) [nM] | other results
23 | COc1ccc2c(c1)C=C(C(=O)N1CCC[C@@H](O)C1)Cn1c-2c(C2CCCCC2)c2ccc(C(=O)NS(=O)(=O)N(C)C)cc21 |  | 50 to 1000 | IC50 ([2]; preincubation protocol): 10 to 1000 nM
24 | C[C@@H]1CN(C(=O)C2(F)Cc3ccccc3-c3c(C4CCCCC4)c4ccc(C(=O)O)cc4n3C2)C[C@H](O)O1 (some centres unmarked) |  | 1000 to 10000 | IC50 ([2]; preincubation protocol): 10 to 1000 nM
25 | CNS(=O)(=O)NC(=O)c1ccc2c(C3CCCCC3)c3n(c2c1)CC(C(=O)N1C[C@@H](C)O[C@@H](C)C1)Cc1ccccc1-3 (some centres unmarked) |  | 50 to 1000 | IC50 ([2]; preincubation protocol): 10 to 1000 nM
26 | COC(=O)C1=Cc2c(OC)cccc2-c2c(C3CCCCC3)c3ccc(C(=O)OC)cc3n2C1 |  | > 3300 | IC50 ([2]; preincubation protocol): > 4000 nM
27 | COC(=O)c1ccc2c(C3CCCCC3)c3n(c2c1)CC(C(=O)O)=Cc1c(OC)cccc1-3 |  | 1000 to 10000 | IC50 ([2]; preincubation protocol): 1000 to 10000 nM
28 | COC(=O)c1ccc2c(C3CCCCC3)c3n(c2c1)CC(C(=O)N1C[C@@H](C)O[C@@H](C)C1)=Cc1cc(OC)ncc1-3 |  | > 1000 | IC50 ([2]; preincubation protocol): > 1000 nM
29 | COc1cccc2c1C=C(C(=O)N1C[C@@H](C)O[C@@H](C)C1)Cn1c-2c(C2CCCCC2)c2ccc(C(=O)O)cc21 |  | 50 to 1000 | IC50 ([2]; preincubation protocol): 10 to 1000 nM
30 | COc1cccc2c1C=C(C(=O)N1C[C@@H](C)O[C@@H](C)C1)Cn1c-2c(C2CCCCC2)c2ccc(C(=O)NS(=O)(=O)N(C)C)cc21 |  | 50 to 1000 | IC50 ([2]; preincubation protocol): 10 to 1000 nM
31 | COC(=O)c1ccc2c(C3CCCCC3)c3n(c2c1)C(O)c1cc(OC)ccc1-3 (centres unmarked) |  | > 100 | IC50 ([2]; preincubation protocol): > 1000 nM
32 | COC(=O)c1ccc2c(C3CCCCC3)c3n(c2c1)C(O)c1cc(OCc2ccccc2)ccc1-3 (centres unmarked) |  | > 100 | IC50 ([2]; preincubation protocol): 1000 to 10000 nM
33 | COC(=O)c1ccc2c(C3CCCCC3)c3n(c2c1)CC=Cc1ccccc1-3 [Example 1, Methyl 13-cyclohexyl-7H-indolo[2,1-a][2]benzazepine-10-carboxylate] |  |  | EC50 (HCV replicon [1]; luciferase method): > 10000 nM
34 | COC(=O)c1ccc2c(C3CCCCC3)c3n(c2c1)CC=Cc1cc(OCc2ccccc2)ccc1-3 [Example 4, Methyl 13-cyclohexyl-3-benzyloxy-7H-indolo[2,1-a][2]benzazepine-10-carboxylate] |  |  | EC50 (HCV replicon [1]; luciferase method): > 10000 nM
35 | COC(=O)c1ccc2c(C3CCCCC3)c3n(c2c1)CCCc1cc(O)ccc1-3 [Example 5, Methyl 13-cyclohexyl-3-hydroxy-6,7-dihydro-5H-indolo[2,1-a][2]benzazepine-10-carboxylate] |  |  | EC50 (HCV replicon [1]; luciferase method): > 10000 nM
36 | O=C(O)c1ccc2c(C3CCCCC3)c3n(c2c1)CCOc1cccnc1-3 [Example 13, 13-cyclohexyl-6,7-dihydropyrido[2′,3′:6,7][1,4]oxazepino[4,5-a]indole-10-carboxylic acid] |  |  | EC50 (HCV replicon [1]; luciferase method): 100 to 1000 nM
37 | CCOC(=O)c1cc2ccccc2c2c(C3CCCCC3)c3ccc(C(=O)OC)cc3n12 [drawing 141] | > 10000 |  | 
38 | O=C(O)c1ccc2c(C3CCCCC3)c3n(c2c1)CC(C(=O)O)Cc1ccccc1-3 (centres unmarked) [drawing 147] | > 10000 |  | 
39 | COC(=O)/C=C/c1ccc(NC(=O)C2(NC(=O)c3ccc4c(C5CCCCC5)c5n(c4c3)CC(=O)Nc3cccnc3-5)CCCC2)cc1 [drawing 159] |  | < 100 | IC50 [2, 5]: 20 to 1000 nM
40 | O=C(O)/C=C/c1ccc(NC(=O)C2(NC(=O)c3ccc4c(C5CCCCC5)c5n(c4c3)CCCc3ccccc3-5)CCNCC2)cc1 [drawing 160] |  | 10 to 1000 | IC50 [2, 5]: 20 to 1000 nM
41 | COC(=O)c1ccc2c(C3CCCCC3)c3n(c2c1)CC(C(=O)OCc1ccccc1)=Cc1ccccc1-3 [drawing 223] |  | 1000 to 10000 | IC50 [2, 5]: > 1000 nM
42 | O=C(NS(=O)(=O)C1CC1)c1ccc2c(C3CCCCC3)c3n(c2c1)CC(C(=O)N1CCOCC1)Cc1ccccc1-3 (centres unmarked) [drawing 287] |  | 10 to 1000 | IC50 [2, 5]: 20 to 1000 nM
43 | CS(=O)(=O)NC(=O)c1ccc2c(C3CCCCC3)c3n(c2c1)CC(C(=O)N1CCOCC1)Cc1ccccc1-3 (centres unmarked) [drawing 303] |  | 10 to 1000 | IC50 [2, 5]: 20 to 1000 nM
44 | O=C(O)c1ccc2c(C3CCCCC3)c3n(c2c1)CC(C(=O)O)Cc1ccccc1-3 (centres unmarked) [drawing 305] |  | > 10000 | IC50 [2, 5]: 20 to 1000 nM
